The values below come from patent US11149049B2, “Substituted nucleosides, nucleotides and analogs thereof” (JANSSEN BIOPHARMA, INC., priority 2017, dated 2021).

The subject of data set [1] is RSV replicon. Put plainly: microbe, parasite or virus in culture. The format is cell-based. Particulars: human respiratory syncytial virus, 168 h, read-out: RSV EC50, HeLa-derived RSV replicon cells, 7 days, luciferase.
A short description of data set [2]: Cell viability (CC50) in the RSV replicon assay. Particulars: human, HeLa-derived cells containing the stable RSV replicon, CellTiter-Glo.
For data set [3], the system named is Ebola minigenome. Briefly: microbe, parasite or virus in culture. The format is cell-based. The note with it: Zaire ebolavirus, HEp-2, 48 h, read-out: EBOV EC50, HEp-2 cells, Ebola minigenome, 48 hours.
A short description of data set [4]: in vitro. The note with it: human.
In data set [5] the test system is Human rhinovirus 1B. Put plainly: Rhinovirus antiviral assay (HRV1B). The format is cell-based. The note with it: Rhinovirus A, 96 h.
A short description of data set [6]: Toxicity (CC50) in the HRV1B assay. The note with it: human.
Data set [7] can be described thus: Cytotoxicity in the DENV assay, uninfected parallel cultures. Particulars: human.
The test system of data set [8] is Huh-7.5 cells. The data set is described as above. Particulars: read-out: DENV CC50; uninfected Huh-7.5 parallel cultures.
The test system of data set [9] is human β-coronavirus strain OC43. Put plainly: Coronavirus antiviral assay (OC43). The note with it: Betacoronavirus 1, OC43, 120 h; HeLa or MRC-5 cells, five days, CellTiter-Glo; read-out: OC43CoV EC50. The format is cell-based. On the procedure:
(§1) The human β-coronavirus strain OC43 was purchased from ATCC (Manassas, Va.; item numbers VR-1558 and VR-740, respectively). 24 hours prior to dosing, HeLa human cervix epithelial cells (ATCC, CCL-2) or MRC-5 human lung fibroblast (ATCC, CCL-171) were plated in 96 well plates at a density of 1.5×10^5/ml in DMEM medium supplemented with 10% fetal bovine serum, 1% HEPES buffer, 1% Penicillin/Streptomycin and 1% non-essential amino acids (all Mediatech, Manassas, Va.). At the day of infection, serially diluted compounds were added to cells and incubated for 4 hours. After the end of the 4 hour pre-incubation period, cells were infected with either coronavirus strain OC43 or 229E. The virus inoculum was selected to cause 80-90% cytopathic effect. Infected cells were incubated for five days at 37° C., 5% CO2. To develop the assay, 100 μl media was replaced with 100 μl CellTiter-Glo® reagent (Promega, Madison, Wis.), and incubated for 10 min at room temperature. Luminescence was measured on a Victor X3 multi-label plate reader. Potential compound cytotoxicity was determined using uninfected parallel cultures.

Data set [10] can be described thus: Cytotoxicity in the coronavirus assay, uninfected parallel cultures. The format is cell-based. The note with it: human, read-out: OC43CoV CC50. The protocol:
as §1

The test system of data set [11] is Dengue virus type 2 NG-C or Dengue virus type 4 H241. Put plainly: Dengue antiviral assay (DENV). The format is cell-based. The note with it: Huh-7.5 cells, five to six days, CellTiter-Glo. The protocol:
The Dengue virus type 2 strain New Guniea C (NG-C) and the Dengue virus type 4 strain H241 were purchased from ATCC (Manassas, Va.; item numbers VR-1584 and VR-1490, respectively). 24 hours prior to dosing, Huh-7.5 cells were plated in 96 well plates at a density of 1.5×10^5/ml in DMEM medium supplemented with 10% fetal bovine serum, 1% HEPES buffer, 1% Penicillin/Streptomycin and 1% non-essential amino acids (all Mediatech, Manassas, Va.). At the day of infection, serially diluted compounds were added to cells and incubated for 4 hours. After the end of the 4 hour pre-incubation period, cells were infected with either Dengue virus type 2 NG-C or Dengue virus type 4 H241. The virus inoculum was selected to cause 80-90% cytopathic effect in five to six days. Infected cells were incubated for five (NG-C) to six (H241) days at 37° C., 5% CO2. To develop the assay, 100 μl media was replaced with 100 μl CellTiter-Glo® reagent (Promega, Madison, Wis.), and incubated for 10 min at room temperature. Luminescence was measured on a Victor X3 multi-label plate reader. Potential compound cytotoxicity was determined using uninfected parallel cultures.

The nature of data set [12]: in vitro. Particulars: human. This is another data set of the same source.
[13] abbreviates: read-out: HRV 1B EC50, HeLa-OHIO cells, 4 d, CellTiter-Glo.
Setting [14] is: DENV CC50, uninfected Huh-7.5 parallel cultures.

Like-named read-outs stand apart in the source and are kept apart here.

Turning to `CC(C)OC(=O)[C@H](C)NP(=O)(OC[C@@]1(F)O[C@@](C#N)(c2ccc3c(N)ncnn23)[C@H](O)[C@@H]1O)Oc1ccccc1` (stereo partly drawn) [Compound 6, Isopropyl ((((2S,3S,4R,5R)-5-(4-aminopyrrolo[2,1-f][1,2,4]triazin-7-yl)-5-cyano-2-fluoro-3,4-dihydroxytetrahydrofuran-2-yl)methoxy)(phenoxy)phosphoryl)-L-alaninate], the EC50 turned out to be 0.02 µM in data set [1]; 2.5 µM in [3]; 4.1 µM in data set [5] (setting [13]); 1.7 µM in data set [9]; 0.25 µM in [11] (Dengue virus, Huh7.5, 144 h); 0.33 µM in data set [11]. The compound further gave a CC50 at 7 days in data set [2] of 43 µM. Further, the values for the CC50 in data set [4], in data set [7] (setting [14]) and in [8] were greater than 100 µM, 78 µM and 69 µM, respectively. Besides, the CC50 at 4 d in data set [6] is greater than 100 µM. For the same compound, the CC50 at 5 days in [10] is greater than 100 µM.

Consider `CC(C)CCOC(=O)C[C@H](NP(=O)(OC[C@@]1(F)O[C@@](C#N)(c2ccc3c(N)ncnn23)[C@H](O)[C@@H]1O)Oc1ccccc1)C(=O)OCCC(C)C` (stereo partly drawn) [Compound 7, Diisopentyl ((((2S,3S,4R,5R)-5-(4-aminopyrrolo[2,1-f][1,2,4]triazin-7-yl)-5-cyano-2-fluoro-3,4-dihydroxytetrahydrofuran-2-yl)methoxy)(phenoxy)phosphoryl)-L-aspartate], for which the EC50 in [1] was found to be 0.03 µM; in [3], 0.2 µM; in [5] (setting [13]), 0.15 µM; in data set [9] it was 0.056 µM; in data set [11] (Dengue virus, Huh7.5, 144 h), 0.0014 µM. In addition, the CC50 at 7 days in [2] turned out to be 21 µM. For the same compound, the CC50 in [4] is 14 µM; in data set [7] (setting [14]), 15 µM; in [8], 21 µM. In data set [6], this compound showed a CC50 at 4 d of 12.4 µM. Further, the CC50 at 5 days in data set [10] stood at 13 µM.

Regarding `CCC(CC)COC(=O)[C@@H](C)NP(=O)(OC[C@H]1O[C@@](C#N)(c2ccc3c(N)ncnn23)[C@H](O)[C@@H]1O)Oc1ccccc1` (some centres unmarked) [Compound C1, reference compound], the EC50 was 0.02 µM in [1]; 0.8 µM in data set [3]; 0.12 µM in [5] (HeLa-OHIO cells, 4 d, CellTiter-Glo, read-out: HRV 1B EC50); 0.065 µM in data set [9]; 0.13 µM in [11] (Dengue virus, Huh7.5, 144 h). Also, the results for the CC50 in data set [4] and in data set [7] were 51 µM and 22 µM, respectively. Moreover, the CC50 at 4 d in data set [12] worked out at 6 µM. Also, the CC50 at 5 days in data set [10] is 69 µM.
